The values that follow come from patent US6017918A, “Phenyl glycine compounds and methods of treating atherosclerosis and restenosis” (Warner-Lambert Company, priority 1999, dated 2000).

Assay [1] deals with Lp(a) production (HepG2^K17 cells). Briefly: LPA3 screen: inhibition of Lp(a) production in HepG2^K17 cells, Lp(a) by ELISA. The conditions noted are these: 8 h, Lp(a) normalized for total protein, ^a = multiple tests. The format is cell-based. How it is done: The LPA3 screen is used to identify compounds that inhibit Lp(a) production. This screen employs permanently transfected HepG2 cells (HepG2^K17) that are generated using an apo(a) 17-kringle cDNA expression construct (pcDNA-AMP, In Vitrogen, Carlsbad, Calif.) in accordance with methods that are well-known in molecular biology.
HepG2^K17 cells are seeded in 96-well plates at a density of 75,000 cells per well in 0.25 mL of Dulbecco's Modified Eagle Media (DMEM) containing 10% fetal bovine serum (FBS). Seeded plates are incubated overnight in a 37° C., 5% CO2 /95% […] incubator. The media is removed, replaced with (1) fresh media, or (2) fresh media plus 0.3 to 50 μM of a compound of the present invention in 20 μL of PBS, and the plates returned to the incubator for 8 hours. After the additional 8 hours of incubation, Lp(a) is assayed in the media by ELISA. Cells are digested with 0.5N NaOH overnight and assayed for total protein. Lp(a) values are normalized for total protein content.
(In general: In an ELISA, binding on a coated surface is turned into a signal by an enzyme label.)

The subject of assay [2] is apolipoprotein(a), [apo(a)], apolipoproteinB-100, [apoB-100], coupling reaction that generates Lp(a). Description: LPABC screen: lipoprotein(a) biochemical coupling assay, Lp(a) by ELISA. Particulars: recombinant apo(a) + HepG2 conditioned media, 67 minutes, 37° C.; ^a = multiple tests. An excerpt: The lipoprotein(a), [Lp(a)], biochemical coupling assay (LPABC) is used to characterize inhibitors of the apolipoprotein(a), [apo(a)], apolipoproteinB-100, [apoB-100], coupling reaction that generates Lp(a).
Protocol Conditioned media from 293 cells (ATCC CRL-1573), permanently transfected with an apo(a) 17-kringle cDNA expression construct (pcDNA-AMP, In Vitrogen, Carlsbad, Calif.) using standard molecular biology techniques, was used as a source of recombinant apo(a). The 293 cell conditioned media containing the recombinant apo(a) is diluted 1:3 with phosphate buffered saline (PBS) and 90 μL is pipetted into each well of a 96-well plate and placed into a 37° C. incubator for 10 minutes. Twenty microliters of a 0.3 to 50 μM solution of a compound of the present invention in PBS is added to the warmed plate. Ninety microliters of HepG2 (ATCC HB-8065) cell conditioned media diluted 1:3 with PBS is added to the apo(a)/compound mixture and mixed by pipetting up and down 5 times. The reaction is incubated for 67 minutes in a 37° C. incubator. A 100 μL aliquot of the reaction is removed and assayed for its Lp(a) content by an enzyme linked immunosorbent assay (ELISA).

On to `CCOC(=O)C(NCc1ccc(C#N)cc1)c1cc(C(C)(C)C)c(O)c(C(C)(C)C)c1` (stereo not shown) [Example 34, (4-Cyano-benzylamino)-(3,5-di-tert-butyl-4-hydroxy-phenyl)-acetic acid ethyl ester], for which the results for the IC50 in assay [1] and in assay [2] were greater than 74 µM and 57.6 µM, respectively.

On to `CCOC(=O)C(NCc1cc(O)c(OC)c(OC)c1)c1cc(C(C)(C)C)c(O)c(C(C)(C)C)c1` (stereo not shown) [Example 14, (3,5-Di-tert-butyl-4-hydroxy-phenyl)-(3-hydroxy-4,5-dimethoxy-benzylamino)-acetic acid ethyl ester], for which the figures for the IC50 in assay [1] and in assay [2] were 9.3 µM and 10.6 µM, respectively.

Regarding `CCOC(=O)C(NCc1cccnc1)c1cc(C(C)(C)C)c(O)c(C(C)(C)C)c1` (stereo not shown) [Example 2, (3,5-Di-tert-butyl-4-hydroxy-phenyl)-[(pyridin-3-ylmethyl)-amino]-acetic acid ethyl ester], the results for the IC50 in assay [1] and in assay [2] were 20 µM and 10 µM, respectively.

Consider `CCOC(=O)C(NCc1ccc(Cl)cc1Cl)c1cc(C(C)(C)C)c(O)c(C(C)(C)C)c1` (stereo not shown) [Example 36, (3,5-Di-tert-butyl-4-hydroxy-phenyl)-(2,4-dichloro-benzylamino)-acetic acid ethyl ester], for which the IC50 in assay [1] was greater than 74 µM; in assay [2], 47.9 µM.

With `CCOC(=O)C(c1cc(C(C)(C)C)c(O)c(C(C)(C)C)c1)N(Cc1cccnc1)CC1CCCCC1` (stereo not shown) [Example 16, (Cyclohexylmethyl-pyridin-3-ylmethyl-amino)-(3,5-di-tert-butyl-4-hydroxy-phenyl)-acetic acid ethyl ester], the IC50 was 3.7 µM in assay [1] and 1.48 µM in assay [2].

In the case of `CCOC(=O)C(NCc1ccc(N(C)C)cc1)c1cc(C(C)(C)C)c(O)c(C(C)(C)C)c1` (stereo not shown) [Example 38, (3,5-Di-tert-butyl-4-hydroxy-phenyl)-[4-dimethylamino-benzylamino]-acetic acid ethyl ester], the 50% inhibitory concentration (IC50) is greater than 74 µM in assay [1] and 54 µM in assay [2].

Take `CCOC(=O)C(NCc1ccccc1F)c1cc(C(C)(C)C)c(O)c(C(C)(C)C)c1` (stereo not shown) [Example 40, (3,5-Di-tert-butyl-4-hydroxy-phenyl)-(2-fluoro-benzylamino]-acetic acid ethyl ester]: the IC50 was greater than 74 µM in assay [1] and 50.2 µM in assay [2].

As for `CCOC(=O)C(NCc1ccccn1)c1cc(C(C)(C)C)c(O)c(C(C)(C)C)c1` (stereo not shown) [Example 4], the half-inhibitory concentration (IC50) amounted to 9.1 µM in assay [1] and 6.48 µM in assay [2].

In the case of `CCOC(=O)C(NCc1ccc(O)c(OCC)c1)c1cc(C(C)(C)C)c(O)c(C(C)(C)C)c1` (stereo not shown) [Example 39, (3,5-Di-tert-butyl-4-hydroxy-phenyl)-(3-ethoxy-4-hydroxy-benzylamino)-acetic acid ethyl ester], the IC50 in assay [1] is greater than 74 µM; in assay [2] it was 59.1 µM.

Turning to `CCOC(=O)C(c1cc(C(C)(C)C)c(O)c(C(C)(C)C)c1)N1CCCC1` (stereo not shown) [Example 52, (3,5-Di-tert-butyl-4-hydroxy-phenyl)-(N-pyrollidinyl)-acetic acid ethyl ester], the IC50 in assay [1] was determined as 2.7 µM; in assay [2] it was 1.55 µM.

On to `CCOC(=O)C(NCc1cc(Cl)cc(Cl)c1O)c1cc(C(C)(C)C)c(O)c(C(C)(C)C)c1` (stereo not shown) [Example 35, (3,5-Di-tert-butyl-4-hydroxy-phenyl)-(3,5-dichloro-2-hydroxy-benzylamino)-acetic acid ethyl ester], for which the IC50 in assay [1] is greater than 74 µM; in assay [2], 15.9 µM.

Regarding `CCOC(=O)C(NCc1ccccc1C(F)(F)F)c1cc(C(C)(C)C)c(O)c(C(C)(C)C)c1` (stereo not shown) [Example 47, (3,5-Di-tert-butyl-4-hydroxy-phenyl)-(2-trifluoromethyl-benzylamino)-acetic acid ethyl ester], the IC50 in assay [1] is greater than 74 µM; in assay [2] it was 33.4 µM.

`CCOC(=O)C(NCc1ccc([N+](=O)[O-])cc1)c1cc(C(C)(C)C)c(O)c(C(C)(C)C)c1` (stereo not shown) [Example 45, (3,5-Di-tert-butyl-4-hydroxy-phenyl)-(4-nitro-benzylamino)-acetic acid ethyl ester]: the results for the IC50 in assay [1] and in assay [2] were greater than 74 µM and 96.8 µM, respectively.

On to `CCOC(=O)C(Nc1cccnc1)c1cc(C(C)(C)C)c(O)c(C(C)(C)C)c1` (stereo not shown) [Example 1, (3,5-Di-tert-butyl-4-hydroxy-phenyl)-[(pyridin-3-yl)-amino]-acetic acid ethyl ester], for which the IC50 in assay [1] stood at 7.6 µM; in assay [2], 6.48 µM.

In general, IC50 refers to the midpoint of a concentration-inhibition curve.
